Point of comparison: Cc1ccc(C=C2N=C(c3ccccc3)OC2=O)o1 [4-(5-Methyl-furan-2-ylmethylene)-2-phenyl-4H-oxazol-5-one], melting point 160 °C. Against it:
- CSCC[C@@H](NC(=O)OC(C)(C)C)C(=O)O [N-boc-D-methionine] — lower, 49 °C
- c1ccc2c(c1)ccc1c3ccccc3ccc21 [Chrysene] — higher, 253 °C
- CCCCCS [1-pentanethiol] — lower, -76 °C
- CCOC(=O)c1cnn(-c2ccccc2)c1 [ethyl 1-phenyl-1h-pyrazole-4-carboxylate] — lower, 98 °C
- FC1(F)C2=CC=CC=C1C=CC=C2 [11,11-Difluoro-1,6-methano[10]annulene] — lower, 119 °C
- Cc1c(C)c(C)c(C)c(C)c1C [Hexamethylbenzene] — higher, 167 °C
- CC(C)NC(C)C [diisopropylamine] — lower, -61 °C
- O=C1c2ccccc2C(=O)c2c1ccc(O)c2O [1,2-Dihydroxy-9,10-anthraquinone] — higher, 281 °C
- CC(/C=C(\C)C#Cc1ccccc1)=N/Nc1ccc([N+](=O)[O-])cc1[N+](=O)[O-] — higher, 198 °C
- CCCCC(=O)N(Cc1ccc(-c2ccccc2-c2nnn[nH]2)cc1)C(C(=O)O)C(C)C (stereo not given) — lower, 116 °C
- Cc1ccc(N)c(C)c1 [2,4-dimethylaniline] — lower, -15 °C
- Cn1cc[nH]c1=S [Methimazole] — lower, 146 °C
- Cc1ccc(-c2cc(C(F)(F)F)nn2-c2ccc(S(N)(=O)=O)cc2)cc1 [celecoxib] — lower, 158 °C
- CCCCCCCCCCCCCC [N-tetradecane] — lower, 6 °C
- Cc1cccc2c1Cc1ccccc1-2 [1-methylfluorene] — lower, 85 °C
- CCCC(O)(CCC)C1(C)CCC(C(=O)O)C(C)(C)O1 (stereo not given) — lower, 112 °C
- O=[N+]([O-])c1cc(F)ccc1O [4-fluoro-2-nitrophenol] — lower, 75 °C
- OB(O)c1cc(-c2ccccc2)cc(-c2ccccc2)c1 [1,1':3',1''-terphenyl-5'-boronic acid] — higher, 294 °C
- c1ccc2c(c1)cc1ccc3cccc4ccc2c1c34 [benzo(a)pyrene] — higher, 179 °C
- ClCc1ccc(Cl)c(Cl)c1 [3,4-dichlorobenzyl chloride] — lower, -3 °C
- O=[N+]([O-])c1cccc2ccccc12 [1-Nitronaphthalene] — lower, 61.5 °C
- COc1ccc(/C=C/[N+](=O)[O-])cc1OC [3,4-dimethoxy-beta-nitrostyrene] — lower, 140 °C
- CC(=O)c1sccc1N [2-acetyl-3-aminothiophene] — lower, 86 °C
- CC(=O)c1ccc(O)c(C(F)(F)F)c1 [4'-hydroxy-3'-(trifluoromethyl)acetophenone] — higher, 176 °C
- Nc1ccccc1[N+](=O)[O-] [o-nitroaniline] — lower, 73 °C
- COc1ccc2c(c1)no[n+]2[O-] [5-Methoxybenzofurazan, 1-oxide] — lower, 118 °C
- BrCCCBr [1,3-Dibromopropane] — lower, -34 °C
- Nc1ccc(C(=O)O)cc1 [4-aminobenzoic acid] — higher, 188 °C
- CCCCCCCBr [1-bromoheptane] — lower, -56 °C
- CN1CC(Br)C(=O)NC1=O (stereo not given) [5-bromo-1-methyldihydropyrimidine-2,4(1H,3H)-dione] — lower, 149 °C
- COc1ccc(Cc2cnc(N)nc2N)cc1OC [diaveridine] — higher, 233 °C
- C=C[C@H]1C[N@@]2CC[C@H]1C[C@@H]2[C@@H](O)c1ccnc2ccccc12 [cinchonine] — higher, 258 °C
- O=C(O)c1cccc(I)c1 [3-iodobenzoic acid] — higher, 187 °C
- Cn1nnc2ccccc21 [1-methyl-1h-benzotriazole] — lower, 65 °C
- Cc1ncc([N+](=O)[O-])n1CCO [metronidazole] — the same, 160 °C
- CC12CCC(C(C(c3ccccc3)c3ccccc3)C1=O)C2(C)C (stereo not given) [2-Bornanone, 3-(diphenylmethyl)-] — lower, 107 °C
- CCCCC=O [Valeraldehyde] — lower, -91.5 °C
- OCc1c2ccccc2cc2ccccc12 [9-anthracenemethanol] — higher, 163 °C
- Cc1cc(Br)cn(C)c1=O [5-bromo-1,3-dimethyl-2-pyridone] — lower, 106 °C
- CCCC(C)=O [Pentan-2-one] — lower, -78 °C
- O=C(O)c1ccc(C(F)(F)F)cc1 [4-(trifluoromethyl)benzoic acid] — higher, 221 °C
- N#CCc1ccc(Cl)cc1 [4-chlorobenzyl_cyanide] — lower, 31 °C
- O=C1CCC(c2ccccc2)CC1 [4-phenylcyclohexanone] — lower, 80 °C
- C[C@H]1CCCC[C@@H]1O (relative stereo) [trans-2-methylcyclohexanol] — lower, -21 °C
- O=Cc1cccc(I)c1 [m-iodobenzaldehyde] — lower, 58 °C
- CC(C(=O)O)c1ccc(-c2ccccc2)c(F)c1 (stereo not given) [flurbiprofen] [listing 1 of 2 here] — lower, 110 °C
- COc1ccc([C@@H]2Sc3ccccc3N(CCN(C)C)C(=O)[C@@H]2OC(C)=O)cc1 [Diltiazem] — higher, 231 °C
- CC(C)NCC(O)c1cc(O)cc(O)c1 (stereo not given) [Orciprenaline] — lower, 100 °C
- CC1=CC(=O)CC(C)(C)C1 [3,5,5-Trimethylcyclohex-2-en-1-one] — lower, -8 °C
- COB(OC)OC [Trimethyl borate] — lower, -34 °C
- CCCNCCC [di-n-propylamine] — lower, -63 °C
- O=C(c1ccccc1)c1cc(C(=O)c2ccccc2)cc(C(=O)c2ccccc2)c1 [1,3,5-tribenzoylbenzene] — lower, 118 °C
- COC(=O)c1cccc(C(=O)OC)c1 [dimethyl isophthalate] — lower, 69 °C
- O=Cc1ccc(Br)cc1 [p-bromobenzaldehyde] — lower, 57 °C
- Clc1cc(Cl)c(-c2ccccc2)cc1Cl [2,4,5-Trichlorobiphenyl] — lower, 78 °C
- Fc1c(F)c(F)c(B(c2c(F)c(F)c(F)c(F)c2F)c2c(F)c(F)c(F)c(F)c2F)c(F)c1F [tris(pentafluorophenyl)borane] — lower, 128 °C
- CC(Oc1ccc(Cl)cc1Cl)C(=O)O (stereo not given) [dichlorprop] — lower, 118 °C
- O=C(Oc1cccc(OC(=O)c2ccccc2)c1)c1ccccc1 [1,3-dibenzoyloxybenzene] — lower, 118 °C
- COC(=O)c1cc(OC)cc(OC)c1 [methyl_3,5-dimethoxybenzoate] — lower, 43 °C
- Oc1cc(Cl)ccc1Oc1ccc(Cl)cc1Cl [5-Chloro-2-(2,4-dichlorophenoxy)phenol] — lower, 57 °C
- C=C(c1ccccc1)c1ccccc1 [1,1-diphenylethene] — lower, 8 °C
- COc1cc2c(c(OC)c1OC)-c1ccc(OC)c(=O)cc1[C@@H](NC(C)=O)CC2 [colchicine] — lower, 146 °C
- CCCCCCCl [1-chlorohexane] — lower, -94 °C
- CCCC1=NNC(=O)C1 [3-n-propyl-2-pyrazolin-5-one] — higher, 208 °C
- C=CCN1C(=O)C(CC(C)C)NC1=S (stereo not given) [albutoin] — higher, 210 °C
- CCCCCCCCCc1ccc(B(O)O)cc1 [4-n-nonylbenzeneboronic acid] — lower, 84 °C
- CCCCC1C(=O)N(c2ccccc2)N(c2ccccc2)C1=O [Phenylbutazone] — lower, 107 °C
- CSC(SC)=C(C#N)C#N [[Bis(Methylthio)Methylene]Malononitrile] — lower, 61 °C
- N#Cc1cc(C(F)(F)F)ccc1Cl [2-chloro-5-(trifluoromethyl)benzonitrile] — lower, 39 °C
- O=C(O)CCCCC(=O)O [adipic acid] — lower, 153 °C
- O=C(O)COC(=O)Cc1ccccc1Nc1c(Cl)cccc1Cl [aceclofenac] — lower, 149 °C
- CCOC(=O)c1cc(C)n(-c2ccc(C(F)(F)F)cc2)c1C [OSM-S-32] — lower, 67.5 °C
- COc1ccc2ncccc2c1 [6-methoxyquinoline] — lower, 19 °C
- CC(C)(Oc1ccc(CCNC(=O)c2ccc(Cl)cc2)cc1)C(=O)O [Bezafibrate] — higher, 186 °C
- c1ccc2c(c1)ccc1c3ccccc3ccc21 [chrysene] — higher, 254 °C
- C#CC1(O)CCCCC1 [1-ethynylcyclohexanol] — lower, 32 °C
- OB(O)c1c(C(F)(F)F)cccc1C(F)(F)F [2,6-bis(trifluoromethyl)benzeneboronic acid] — lower, 150 °C
- COc1ccc2nc(N)sc2c1 [6-Methoxy-1,3-benzothiazol-2-amine] — higher, 166 °C
- Nc1cccc(I)c1 [3-iodoaniline] — lower, 23 °C
- COc1ccc([N+](=O)[O-])cc1N [2-Methoxy-5-nitroaniline] — lower, 118 °C
- OB(O)c1cccc(OC(F)(F)F)c1 [3-(trifluoromethoxy)benzeneboronic acid] — lower, 80 °C
- c1ccc2c(c1)CCC2 [indane] — lower, -51 °C
- CC(C(=O)O)c1ccc(-c2ccccc2)c(F)c1 (stereo not given) [flurbiprofen] [listing 2 of 2 here] — lower, 110 °C
- O=Cc1cc([N+](=O)[O-])ccc1Cl [2-chloro-5-nitrobenzaldehyde] — lower, 71 °C
- O=c1[nH]c2ccccc2n1C1CCN(CCCC(c2ccc(F)cc2)c2ccc(F)cc2)CC1 [pimozide] — higher, 216 °C
- CCNc1nc(NC(C)(C)C)nc(SC)n1 [terbutryn] — lower, 105 °C
- CN(C)c1ccc([N+](=O)[O-])cc1 [N,N-dimethyl-4-nitroaniline] — higher, 165 °C
- c1ccc(COCc2ccccc2)cc1 [benzyl_ether] — lower, 3 °C
- N#Cc1cc(F)c(N)cc1F [4-amino-2,5-difluorobenzonitrile] — lower, 93 °C
- O=Cc1ccccc1Cl [2-chlorobenzaldehyde] — lower, 10 °C
- O=Cc1ccco1 [2-Furaldehyde] — lower, -36 °C
- NC(=O)c1ccccc1Cl [o-chlorobenzamide] — lower, 143 °C
- FC(F)(F)c1ccccc1Cl [2-chlorobenzotrifluoride] — lower, -6 °C
- [2H]OC(=O)C([2H])([2H])[2H] [(~2~H_4_)Acetic acid] — lower, 15.5 °C
- c1ccc2c(c1)c1ccccc1c1ccccc21 [Triphenylene] — higher, 199 °C
- O=C(OCCc1cc([N+](=O)[O-])c(CCOC(=O)c2ccccc2)cc1[N+](=O)[O-])c1ccccc1 [(2,5-dinitrobenzene-1,4-diyl)diethane-2,1-diyl dibenzoate] — lower, 158 °C
- CCC(Br)CBr (stereo not given) [1,2-dibromobutane] — lower, -65 °C
- COC(=O)n1c(C)c(C)c2ccccc21 [methyl 2,3-dimethyl-1H-indole-1-carboxylate] — lower, 50 °C
- BrCCCCCCBr [1,6-Dibromohexane] — lower, 2 °C

— the Bradley open melting point set (2014)
